# Assay results: PMC6001459 (The Febs Journal, 2018)
# Biological target: T1, PpBBE1 (Physcomitrium patens, UniProt A0A2K1JP57, D396N)
# T1 construct: gene PHYPA_015719; full-length precursor 501 residues; native signal peptide (predicted 1-30) removed; C-terminal octahistidine tag; secreted from Komagataella phaffii KM71H (pPICZalpha, PDI coexpressed); ca. 54 kDa; monomer; bicovalent FAD
# Experiment: X-ray crystal structure, […] A
# Assay type: binding
# Conditions: covalent; bicovalent via 8alpha to H111 and C6 to C172
# T1 sequence (A0A2K1JP57 entry or part of it D396N): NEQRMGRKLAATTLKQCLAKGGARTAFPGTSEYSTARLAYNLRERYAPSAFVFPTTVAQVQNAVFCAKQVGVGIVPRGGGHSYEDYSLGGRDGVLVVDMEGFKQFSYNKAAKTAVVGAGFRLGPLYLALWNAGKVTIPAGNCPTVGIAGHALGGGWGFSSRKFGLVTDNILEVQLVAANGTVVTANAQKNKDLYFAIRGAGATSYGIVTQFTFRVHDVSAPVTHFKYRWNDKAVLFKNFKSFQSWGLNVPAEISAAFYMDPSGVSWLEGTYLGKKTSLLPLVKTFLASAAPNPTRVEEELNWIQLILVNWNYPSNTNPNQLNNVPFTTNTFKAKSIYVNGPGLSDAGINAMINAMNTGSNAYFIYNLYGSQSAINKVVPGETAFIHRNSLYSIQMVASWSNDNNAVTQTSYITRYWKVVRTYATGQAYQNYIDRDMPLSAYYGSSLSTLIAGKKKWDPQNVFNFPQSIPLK
structure (smiles),measurement,value
Cc1cc2nc3c(=O)[nH]c(=O)nc-3n(C[C@H](O)[C@H](O)[C@H](O)COP(=O)(O)OP(=O)(O)OC[C@H]3O[C@@H](n4cnc5c(N)ncnc54)[C@H](O)[C@@H]3O)c2cc1C [FAD],"X-ray crystal structure, 2.6 A",confirmed the bicovalent linkage of the flavin cofactor
